In patent US20070155752A1, “2-Amino-o4-substituted pteridines and their use as inactivators of o6-alkylguanine-dna alkyltransferase” (Government of the United States of America,, priority 2004, published 2007):
Read-outs that look alike come from different tables or passages of the source. Marks after values point to notes of the source that are not given here.

Assays:
HT29 cells = conditions: for Enhancement of HT29 cell killing by BCNU / ED90, concentration required to kill 90% of HT29 cells with BCNU: BCNU 40 μM
[1] = test system: KB nasopharyngeal tumor cells; assay: Colony-forming cytotoxicity assay with BCNU, KB cells; assay type: cell-based; conditions: 40 μM or 80 μM BCNU, 2 hr exposure in folate free medium
Procedure: (§1) 2-Amino-O^4-benzyl-6-carboxypteridine (5) is not effective probably because the negative charge on the molecule at physiological pH prevents its easy entry into cells. However, even though O^4-benzylfolic acid is also anionic at physiological pH, it does enhance cell killing by BCNU. Furthermore, its effectiveness as an adjuvant is a function of the cells' ability to express the α-form of the folic acid receptor. […] KB cell killing by 80 μM BCNU in combination with 7 is also illustrated. For these experiments (FIG. 2) cells were grown in RPMI medium, were incubated with 7 for 2 hr and were then treated with either 40 μM BCNU (A549, HT29 and KB cells) or 80 μM BCNU (KB cells) for 2 hr. The medium was then replaced with fresh medium containing no 7. Cells were kept for 16-18 hr before being replated. […]
(§2) Cells were grown either in Dulbecco's modified Eagle's medium supplemented with 10% fetal bovine serum plus 1.5 mM glutamine and 50 μg/mL gentamycin (HT29) or in RPMI 1640 medium in the presence of 10% fetal bovine serum (HT29, A549 and KB cells). The effect of AGT inactivators on the sensitivity of cells to BCNU was determined using a colony-forming assay.^13 Cells were plated at a density of 10^6 in 25-cm^2 flasks and 24 h later were incubated with different concentrations of AGT inactivator for 2 h before exposure to 40 μM (HT29 cells and A549 cells) or 80 μM (KB cells) of BCNU for 2 h. […]

A549 lung tumor cells = assay: Colony-forming cytotoxicity assay with BCNU, A549 cells; assay type: cell-based; conditions: 40 μM BCNU, 2 hr exposure in folate free medium
Procedure: as §1, §2

[2] = biological target: T1, P140K mutant alkyltransferase (Homo sapiens, UniProt P16455, P140K); conditions: cited from earlier work
T1 construct: His tag
T1 sequence (P16455 1-207 P140K): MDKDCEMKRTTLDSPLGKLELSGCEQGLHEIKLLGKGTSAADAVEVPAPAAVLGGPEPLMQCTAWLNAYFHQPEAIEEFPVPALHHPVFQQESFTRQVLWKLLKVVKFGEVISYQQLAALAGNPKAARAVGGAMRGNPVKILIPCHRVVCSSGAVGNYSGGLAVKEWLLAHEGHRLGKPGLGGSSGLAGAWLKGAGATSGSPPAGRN

[3] = Dulbecco's medium, inactivator present before, during and after BCNU for 16-18 hours
[4] = RPMI medium, inactivator present before and during BCNU only

Compound	Enhancement of HT29 cell killing by BCNU (HT29 cells)	ED90, concentration required to kill 90% of HT29 cells with BCNU (HT29 cells; [3])	ED90, concentration required to kill 90% of HT29 cells with BCNU (HT29 cells; [4])	other results
Nc1nc(OCc2ccccc2)c2nccnc2n1 [Compound 1, 2-amino-O^4-benzylpteridine]	capable of enhancing	0.2^b μM	–	–
Cc1nc2nc(N)nc(OCc3ccccc3)c2nc1C [Compound 2, 2-amino-O^4-benzyl-6,7-dimethylpteridine]	capable of enhancing	0.6^b μM	–	–
Nc1nc(OCc2ccccc2)c2nc(CO)cnc2n1 [Compound 4, 2-Amino-O^4-benzyl-6-hydroxymethylpteridine]	capable of enhancing	0.7^b μM	–	–
Nc1nc(OCc2ccccc2)c2nc(C(=O)O)cnc2n1 [Compound 5, 2-Amino-O^4-benzylpteridine-6-carboxylic acid]	not effective	inactive	–	–
Nc1nc(OCc2ccccc2)c2nc(C=O)cnc2n1 [Compound 6, 2-Amino-O^4-benzyl-6-formylpteridine]	capable of enhancing	–	0.7^c μM	–
Nc1nc(OCc2ccccc2)c2nc(CNc3ccc(C(=O)N[C@@H](CCC(=O)O)C(=O)O)cc3)cnc2n1 [Compound 7, O^4-Benzylfolic acid]	capable of enhancing	–	24^c,d μM	Effectiveness as an adjuvant for cell killing by BCNU (FIG. 2) [1]: greatest; ED90, concentration required to kill 90% of HT29 cells with BCNU (HT29 cells; RPMI folate-free medium): 15 µM; Effectiveness as an adjuvant for cell killing by BCNU (FIG. 2) (HT29 cells; HT29 cells, 40 μM BCNU, 2 hr exposure in folate free medium): somewhat greater; Effectiveness as an adjuvant for cell killing by BCNU (FIG. 2) (A549 lung tumor cells): lowest
Nc1nc(OCc2ccccc2)c2nc[nH]c2n1 [O^6-benzylguanine, reference compound]	–	0.4^b μM	0.7^c μM	Inactivation of the P140K mutant alkyltransferase [2]: essentially resistant
